# Reference: publication PMC8388771, “Cationic Peptidomimetic Amphiphiles Having a N-Aryl- or N-Naphthyl-1,2,3-Triazole Core Structure Targeting Clostridioides (Clostridium) difficile: Synthesis, Antibacterial Evaluation, and an In Vivo C. difficile Infection Model” (Antibiotics, 2021)
# Like-named read-outs stand apart in the source and are kept apart here.
# Key:
# C. difficile ATCC 700057 = test: Primary MIC assay, C. difficile ATCC 700057; type: cell-based, Clostridioides difficile; conditions: Clostridioides difficile, ATCC700057; Table 1; read-out: MIC C. difficile ATCC 700057
# Method: (§1) The N-arytriazole and N-naphthyltriazole peptidomimetics were subjected to antimicrobial screening. […] Vancomycin, colistin, fluconazole, and tamoxifen were used as positive controls (see Table 1 for details).
# (§2) Primary screening (Gram-positive bacteria). Primary MIC assays were performed as described by the Clinical and Laboratory Standards Institute for aerobic and anaerobic bacteria. MIC values for vancomycin were within acceptable QC ranges.
# C. difficile 132 (RT027) = test: Primary MIC assay, C. difficile 132 (RT027); type: cell-based, Clostridioides difficile; conditions: Clostridioides difficile; Table 1; read-out: MIC C. difficile 132 (RT027)
# Method: as §1, §2
# S. aureus ATCC 29213 = test: Primary MIC assay, S. aureus ATCC 29213; type: cell-based; conditions: Staphylococcus aureus, ATCC29213; Table 1; read-out: MIC S. aureus ATCC 29213
# Method: as §1, §2
# S. aureus NCTC 10442 = test: Primary MIC assay, S. aureus NCTC 10442 (MRSA); type: cell-based; conditions: Staphylococcus aureus, MRSA
# Method: as §1, §2
# E. faecalis ATCC 29212 = test: Primary MIC assay, E. faecalis ATCC 29212; type: cell-based, Enterococcus faecalis; conditions: Enterococcus faecalis, ATCC29212; Table 1; read-out: MIC E. faecalis ATCC 29212
# Method: as §1, §2
# S. pneumoniae ATCC 49619 = test: Primary MIC assay, S. pneumoniae ATCC 49619; type: cell-based, Streptococcus pneumoniae; conditions: Streptococcus pneumoniae, ATCC49619; Table 1; read-out: MIC S. pneumoniae ATCC 49619
# Method: as §1, §2
# E. coli ATCC 25922 [1] = test: Primary MIC assay, E. coli ATCC 25922; type: cell-based; conditions: Escherichia coli, ATCC25922; Table 1; read-out: MIC E. coli ATCC 25922
# [2] = Cytotoxicity (CC50) assay by CO-ADD; type: cell-based, human; conditions: human, HEK293 cells (ATCC CRL-1573); Table 1; cytotoxicity on HEK293 cells, tested at ≤32 µg/mL
# Text: as §1
# (§3) Secondary screening (MRSA and Gram-negative bacteria) and cytotoxicity assay–performed by the Community for Open Antimicrobial Drug Discovery (CO-ADD). Samples were provided to CO-ADD [29] for antimicrobial screening by whole cell growth inhibition assays.
# Cytotoxicity Assay. These were performed as described previously.
# human erythrocytes = test: Hemolysis assay, HC50 determination; type: cell-based
# Method: Hemolysis assay (human erythrocytes)–HC50 determination. These were performed as described previously.
# S. aureus ATCC 43300 = test: CO-ADD MIC assay, S. aureus ATCC 43300 (MRSA); type: cell-based; conditions: Staphylococcus aureus, MRSA, read-out: MIC S. aureus ATCC 43300
# Text: as §1, §3
# (§4) Bacterial Inhibition–MIC Assay. These were performed as described previously.
# P. aeruginosa ATCC 27853 = test: CO-ADD MIC assay, P. aeruginosa ATCC 27853; type: cell-based; conditions: Pseudomonas aeruginosa, ATCC27853, Table S1
# Text: as §1, §3, §4
# [3] = tested on: K. pneumoniae ATCC 700603; test: CO-ADD MIC assay, K. pneumoniae ATCC 700603; type: cell-based; conditions: Klebsiella pneumoniae, ATCC700603, Table S1, multi-drug resistant
# Text: as §1, §3, §4
# A. baumannii ATCC 19606 = test: CO-ADD MIC assay, A. baumannii ATCC 19606; type: cell-based; conditions: Acinetobacter baumannii, ATCC19606, Table S1
# Text: as §1, §3, §4
# E. coli ATCC 25922 [4] = test: CO-ADD MIC assay, E. coli ATCC 25922; type: cell-based; conditions: Escherichia coli, ATCC25922, Table S1
# Text: as §1, §3, §4
# C. albicans ATCC 90028 = test: CO-ADD MIC assay, C. albicans ATCC 90028; type: cell-based; conditions: Candida albicans, ATCC90028, Table S1
# Text: as §1, §3
# [5] = tested on: Cryptococcus neoformans var. grubii ATCC 208821; test: CO-ADD MIC assay, C. neoformans var. grubii ATCC 208821; type: cell-based; conditions: for MIC: Cryptococcus neoformans, ATCC208821, Table S1; for MIC C. neoformans var. grubii ATCC 208821: Table S1
# Text: as §1, §3
# [6] = Table 1, read-out: MIC S. aureus NCTC 10442
# [7] = Table 1, lysis of human erythrocytes
# [8] = Table S1, footnote says lysis of sheep erythrocytes
MIC (C. difficile ATCC 700057),MIC (C. difficile 132 (RT027)),MIC (S. aureus ATCC 29213),MIC (S. aureus NCTC 10442; [6]),MIC (E. faecalis ATCC 29212),MIC (S. pneumoniae ATCC 49619),MIC (E. coli ATCC 25922 [1]),"MIC (S. aureus ATCC 43300; Table S1, CO-ADD)",MIC (P. aeruginosa ATCC 27853),MIC [3],MIC (A. baumannii ATCC 19606),MIC (E. coli ATCC 25922 [4]),MIC (C. albicans ATCC 90028),MIC [5],Structure (SMILES),CC50 [2],HC50 (human erythrocytes; [7]),HC50 (human erythrocytes; [8]),also measured
32 µg/mL,64 µg/mL,4 µg/mL,4 µg/mL,8 µg/mL,8 µg/mL,16 µg/mL,4 µg/mL,> 32 µg/mL,> 32 µg/mL,32 µg/mL,32 µg/mL,16 µg/mL,4 to 8 µg/mL,CC(C)CCc1cnnn1-c1c(OCC(=O)N[C@H](CCCNC(=N)N)Cn2cc(CC3CCCCC3)nn2)ccc2ccccc12.Cl [Compound 25],> 32 µg/mL,10.6 µg/mL,10.6 µg/mL,MIC C. neoformans var. grubii ATCC 208821 [5]: 8 µg/mL
64 µg/mL,64 µg/mL,16 µg/mL,32 µg/mL,16 µg/mL,8 µg/mL,64 µg/mL,16 µg/mL,> 32 µg/mL,> 32 µg/mL,> 32 µg/mL,> 32 µg/mL,16 µg/mL,16 µg/mL,CC(C)CCc1cnnn1-c1ccccc1OCC(=O)N[C@H](CCCCN)C(=O)N[C@H](CCCNC(=N)N)Cn1cc(C2CCCCC2)nn1 [Compound 37],> 32 µg/mL,>32 µg/mL,> 32 µg/mL,
32 µg/mL,64 µg/mL,32 µg/mL,32 µg/mL,32 µg/mL,16 µg/mL,128 µg/mL,32 µg/mL,> 32 µg/mL,> 32 µg/mL,> 32 µg/mL,> 32 µg/mL,> 32 µg/mL,32 µg/mL,CC(C)CCc1cn(-c2ccccc2OCC(=O)N[C@H](CCCNC(=N)N)Cn2cc(C3CCCC3)nn2)nn1.Cl [Compound 11],> 32 µg/mL,>32 µg/mL,> 32 µg/mL,
32 µg/mL,64 µg/mL,32 µg/mL,32 µg/mL,32 µg/mL,16 µg/mL,128 µg/mL,32 µg/mL,> 32 µg/mL,> 32 µg/mL,> 32 µg/mL,> 32 µg/mL,> 32 µg/mL,32 µg/mL,CC(C)CCc1cn(-c2ccccc2OCC(=O)N[C@H](CCCNC(=N)N)Cn2cc(C3CCCCC3)nn2)nn1 [Compound 10],> 32 µg/mL,>32 µg/mL,> 32 µg/mL,
32 µg/mL,32 µg/mL,8 µg/mL,4 µg/mL,16 µg/mL,4 µg/mL,64 µg/mL,8 µg/mL,32 µg/mL,> 32 µg/mL,32 µg/mL,32 µg/mL,32 µg/mL,4 to 8 µg/mL,CC(C)CCc1cnnn1-c1c(OCC(=O)N[C@H](CCCCN)C(=O)N[C@H](CCCNC(=N)N)Cn2cc(CC3CCCCC3)nn2)ccc2ccccc12 [Compound 44],> 32 µg/mL,>32 µg/mL,> 32 µg/mL,MIC C. neoformans var. grubii ATCC 208821 [5]: 8 µg/mL
32 µg/mL,32 µg/mL,8 µg/mL,8 µg/mL,8 µg/mL,8 µg/mL,32 µg/mL,8 µg/mL,32 µg/mL,> 32 µg/mL,32 µg/mL,32 µg/mL,32 µg/mL,> 32 µg/mL,CC(C)CCc1cnnn1-c1c(OCC(=O)N[C@H](CCCNC(=N)N)Cn2cc(C3CCCCC3)nn2)ccc2ccccc12 [Compound 24],21.9 µg/mL,>32 µg/mL,> 32 µg/mL,
128 µg/mL,128 µg/mL,32 µg/mL,32 µg/mL,32 µg/mL,32 µg/mL,> 128 µg/mL,32 µg/mL,> 32 µg/mL,> 32 µg/mL,> 32 µg/mL,> 32 µg/mL,> 32 µg/mL,32 µg/mL,CC(C)CCc1cnnn1-c1ccccc1OCC(=O)N[C@H](CCCNC(=N)N)Cn1cc(C2CCCCC2)nn1 [Compound 14],> 32 µg/mL,>32 µg/mL,> 32 µg/mL,

# The remaining lines, values behind:
Structure (SMILES),MIC (C. difficile ATCC 700057),MIC (C. difficile 132 (RT027)),MIC (S. aureus ATCC 29213),MIC (S. aureus NCTC 10442; [6]),MIC (E. faecalis ATCC 29212),MIC (S. pneumoniae ATCC 49619),MIC (E. coli ATCC 25922 [1]),"MIC (S. aureus ATCC 43300; Table S1, CO-ADD)",MIC (P. aeruginosa ATCC 27853),MIC [3],MIC (A. baumannii ATCC 19606),MIC (E. coli ATCC 25922 [4]),MIC (C. albicans ATCC 90028),MIC [5],CC50 [2],HC50 (human erythrocytes; [7]),HC50 (human erythrocytes; [8]),also measured
CC(C)CCc1cn(-c2c(OCC(=O)N[C@H](CCCCN)C(=O)N[C@H](CCCNC(=N)N)Cn3cc(CC4CCCCC4)nn3)ccc3ccccc23)nn1 [Compound 41],16 µg/mL,16 µg/mL,8 µg/mL,8 µg/mL,8 µg/mL,16 µg/mL,128 µg/mL,4 µg/mL,16 µg/mL,32 µg/mL,32 µg/mL,32 µg/mL,32 µg/mL,4 to 8 µg/mL,16 µg/mL,32 µg/mL,32 µg/mL,"MIC (S. aureus NCTC 10442; MRSA / NCTC 10442 / NCTC 104422, Table 2, read-out: MIC S. aureus NCTC 104422): 8 µg/mL; HC50 (human erythrocytes; Table 2, footnote says lysis of sheep erythrocytes): 32 µg/mL; MIC (S. aureus ATCC 43300; Table 2): 4 µg/mL; MIC C. neoformans var. grubii ATCC 208821 [5]: 4 µg/mL"
CC(C)CCOc1ccccc1-n1nncc1COCC(=O)N[C@H](CCCCN)C(=O)N[C@H](CCCNC(=N)N)Cn1cc(Cc2ccccc2)nn1 [Compound 50],> 32 µg/mL,> 32 µg/mL,32 µg/mL,> 32 µg/mL,> 32 µg/mL,> 32 µg/mL,> 32 µg/mL,32 µg/mL,> 32 µg/mL,> 32 µg/mL,> 32 µg/mL,> 32 µg/mL,> 32 µg/mL,> 32 µg/mL,> 32 µg/mL,19.8 µg/mL,19.8 µg/mL,
CC(C)CCc1cn(-c2ccccc2OCC(=O)N[C@H](CCCCN)C(=O)N[C@H](CCCNC(=N)N)Cn2cc(Cc3ccccc3)nn2)nn1 [Compound 36],128 µg/mL,128 µg/mL,32 µg/mL,32 µg/mL,64 µg/mL,16 µg/mL,128 µg/mL,16 µg/mL,> 32 µg/mL,> 32 µg/mL,> 32 µg/mL,> 32 µg/mL,16 µg/mL,32 µg/mL,> 32 µg/mL,>32 µg/mL,> 32 µg/mL,
CC(C)CCc1cn(-c2c(OCC(=O)N[C@H](CCCNC(=N)N)Cn3cc(Cc4ccccc4)nn3)ccc3ccccc23)nn1.Cl [Compound 23],32 µg/mL,32 µg/mL,4 µg/mL,4 µg/mL,4 µg/mL,4 µg/mL,64 µg/mL,8 µg/mL,> 32 µg/mL,> 32 µg/mL,> 32 µg/mL,32 µg/mL,32 µg/mL,16 µg/mL,> 32 µg/mL,>32 µg/mL,> 32 µg/mL,
CC(C)CCc1cnnn1-c1ccccc1OCC(=O)N[C@H](CCCCN)C(=O)N[C@H](CCCNC(=N)N)Cn1cc(Cc2ccccc2)nn1.Cl.Cl [Compound 39],64 µg/mL,32 µg/mL,32 µg/mL,64 µg/mL,32 µg/mL,16 µg/mL,128 µg/mL,32 µg/mL,> 32 µg/mL,> 32 µg/mL,> 32 µg/mL,> 32 µg/mL,16 µg/mL,16 µg/mL,> 32 µg/mL,>32 µg/mL,> 32 µg/mL,
